The results in this text go back to patent publication US20070213301A1 (ACHILLION PHARMACEUTICALS, INC., priority 2006, published 2007).

The assay concerns HCV replicon. The experiment in a line: HCV replicon replication assay (NPTII ELISA). The assay is classed as cell-based, Hepatitis C virus (Huh-7 cells). The note with it: inhibition of HCV replicon replication in Huh-7 HCV replicon-containing cells, three days incubation, NPT level by ELISA. A digest of the protocol: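 Huh-7 cells carrying a Bartenschlager NPTII (neo) HCV replicon, treated 3 days at 37 °C with compound, generally 6 concentrations from 10 to 0.03 micromolar, in equal DMSO across wells. NPTII level, proportional to replication, read by capture ELISA on methanol:acetone-fixed cells; interferon alpha positive control; toxicity scored visually or by MTS.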
A general note: In antiviral work, replicon cells carry a viral genome segment that copies itself.

Where [1] appears, read: Hepatitis C virus, Huh-7, 72 h, read-out: EC50.

SMILES strings stand for the structures. Like-named read-outs stand apart in the source and are kept apart here.

For `CCCCCN(C)c1ccc(N(C(N)=O)c2nc(-c3ccc(F)cc3)cs2)cc1C(F)(F)F` [Compound 140, 1-(4-(4-fluorophenyl)thiazol-2-yl)-1-(4-(methyl(pentyl)amino)-3-(trifluoromethyl)phenyl)urea], the 50% effective concentration (EC50) (as a rule, the concentration at which the effect is half-maximal) under setting [1] is < 1 µM.

`CCCCCOc1ccc(N(C(N)=O)c2nc(-c3ccncc3)cs2)cc1F` [Compound 141, 1-(3-fluoro-4-(pentyloxy)phenyl)-1-(4-(pyridin-4-yl)thiazol-2-yl)urea]: the EC50 under setting [1] is > 10 µM.

Consider `NC(=O)N(c1ccc(OCC2CCCCC2)c(F)c1)c1nc(-c2ccncc2)cs1` [Compound 142, 1-(4-(cyclohexylmethoxy)-3-fluorophenyl)-1-(4-(pyridin-4-yl)thiazol-2-yl)urea], for which the EC50 under setting [1] is 1 to 10 µM.

As to `CCCCCCOc1ccc(N(C(N)=O)c2nc(-c3ccc(C)nc3)cs2)cc1` [Compound 143, 1-(4-(hexyloxy)phenyl)-1-(4-(6-methylpyridin-3-yl)thiazol-2-yl)urea], under setting [1], the EC50 lay within 1 to 10 µM.

Consider `CCCCCCOc1ccc(N(C(N)=O)c2nc(-c3ccc(O)c(C(N)=O)c3)cs2)cc1` [Compound 144, 5-(2-(1-(4-(hexyloxy)phenyl)ureido)thiazol-4-yl)-2-hydroxybenzamide], for which the EC50 under setting [1] is 1 to 10 µM.

For `CCCCCCOc1ccc(N(C(N)=O)c2nc(-c3cccnc3)cs2)cc1` [Compound 145, 1-(4-(hexyloxy)phenyl)-1-(4-(pyridin-3-yl)thiazol-2-yl)urea], the EC50 under setting [1] was < 1 µM.

With `CCCCCCOc1ccc(N(C(N)=O)c2nc(-c3ccncc3)cs2)cc1` [Compound 146, 1-(4-(hexyloxy)phenyl)-1-(4-(pyridin-4-yl)thiazol-2-yl)urea], under setting [1], the EC50 fell in the range of 1 to 10 µM.

With `Cc1ccc(-c2csc(N(C(N)=O)c3ccc(OCC(C)C)c(C(F)(F)F)c3)n2)cn1` [Compound 147, 1-(4-isobutoxy-3-(trifluoromethyl)phenyl)-1-(4-(6-methylpyridin-3-yl)thiazol-2-yl)urea], under setting [1], the EC50 was < 1 µM.

Turning to `CC(C)COc1ccc(N(C(N)=O)c2nc(-c3ccc(O)c(C(N)=O)c3)cs2)cc1C(F)(F)F` [Compound 148, 2-hydroxy-5-(2-(1-(4-isobutoxy-3-(trifluoromethyl)phenyl)ureido)thiazol-4-yl)benzamide], the EC50 under setting [1] is < 1 µM.

Regarding `CC(C)COc1ccc(N(C(N)=O)c2nc(-c3ccc4c(c3)NC(=O)CO4)cs2)cc1C(F)(F)F` [Compound 149, 1-(4-isobutoxy-3-(trifluoromethyl)phenyl)-1-(4-(3-oxo-3,4-dihydro-2H-benzo[b][1,4]oxazin-6-yl)thiazol-2-yl)urea], under setting [1], the EC50 is < 1 µM.

Consider `CC(C)COc1ccc(N(C(N)=O)c2nc(-c3ccccn3)cs2)cc1C(F)(F)F` [Compound 150, 1-(4-isobutoxy-3-(trifluoromethyl)phenyl)-1-(4-(pyridin-2-yl)thiazol-2-yl)urea], for which the EC50 under setting [1] is < 1 µM.

With `CC(C)COc1ccc(N(C(N)=O)c2nc(-c3cccnc3)cs2)cc1C(F)(F)F` [Compound 151, 1-(4-isobutoxy-3-(trifluoromethyl)phenyl)-1-(4-(pyridin-3-yl)thiazol-2-yl)urea], the 50% effective concentration (EC50) under setting [1] is < 1 µM.

Turning to `CC(C)COc1ccc(N(C(N)=O)c2nc(-c3cccnc3)cs2)cc1C(F)(F)F` [Compound 152, 1-(4-isobutoxy-3-(trifluoromethyl)phenyl)-1-(4-(pyridin-3-yl)thiazol-2-yl)urea], the EC50 fell in the range of 1 to 10 µM.

With `CCCCCOc1ccc(N(C(=O)C(N)=O)c2nc(-c3cccnc3)cs2)cc1C(F)(F)F` [Compound 153, N1-(4-(pentyloxy)-3-(trifluoromethyl)phenyl)-N1-(4-(pyridin-3-yl)thiazol-2-yl)oxalamide], under setting [1], the EC50 was < 1 µM.

Take `CCCCCCCC(F)(F)c1ccc(N(C(C)=O)c2nc(-c3cccnc3)cs2)cc1` [Compound 154, N-(4-(1,1-difluorooctyl)phenyl)-N-(4-(pyridin-3-yl)thiazol-2-yl)acetamide]: the EC50 under setting [1] was < 1 µM.

On to `CCCCCCc1ccc(N(C(N)=O)c2nc(-c3cccnc3)c(F)s2)cc1C(F)(F)F` [Compound 155, 1-(5-fluoro-4-(pyridin-3-yl)thiazol-2-yl)-1-(4-hexyl-3-(trifluoromethyl)phenyl)urea], for which the EC50 under setting [1] is < 1 µM.

Regarding `CCCCCOc1ccc(N(C(N)=O)c2nc(-c3cccnc3)c(F)s2)cc1C(F)(F)F` [Compound 156, 1-(5-fluoro-4-(pyridin-3-yl)thiazol-2-yl)-1-(4-(pentyloxy)-3-(trifluoromethyl)phenyl)urea], under setting [1], the EC50 was < 1 µM.

In the case of `CCCCCCCCc1ccc(N(C(=O)[C@@H](N)C(C)C)c2nc(-c3ccc(O)nc3)cs2)cc1C(F)(F)F` [Compound 157, (S)-2-amino-N-(4-(6-hydroxypyridin-3-yl)thiazol-2-yl)-3-methyl-N-(4-octyl-3-(trifluoromethyl)phenyl)butanamide], under setting [1], the EC50 was 1 to 10 µM.

As to `CCCCCCCCOc1ccc(N(C(=O)COC(C)=O)c2nc(-c3cccnc3)cs2)cc1C(F)(F)F` [Compound 158, 2-((4-(octyloxy)-3-(trifluoromethyl)phenyl)(4-(pyridin-3-yl)thiazol-2-yl)amino)-2-oxoethyl acetate], the EC50 under setting [1] is < 1 µM.

As to `CCCCCCCCOc1ccc(N(C(=O)CO)c2nc(-c3cccnc3)cs2)cc1C(F)(F)F` [Compound 159, 2-hydroxy-N-(4-(octyloxy)-3-(trifluoromethyl)phenyl)-N-(4-(pyridin-3-yl)thiazol-2-yl)acetamide], the EC50 under setting [1] is < 1 µM.

In the case of `CCCCCCCCOc1ccc(N(C(=O)CN(C)C)c2nc(-c3cccnc3)cs2)cc1C(F)(F)F` [Compound 160, 2-(dimethylamino)-N-(4-(octyloxy)-3-(trifluoromethyl)phenyl)-N-(4-(pyridin-3-yl)thiazol-2-yl)acetamide], under setting [1], the EC50 was < 1 µM.

Take `CCCCCCCCOc1ccc(N(C(=O)CCC(=O)O)c2nc(-c3cccnc3)cs2)cc1C(F)(F)F` [Compound 161, 4-((4-(octyloxy)-3-(trifluoromethyl)phenyl)(4-(pyridin-3-yl)thiazol-2-yl)amino)-4-oxobutanoic acid]: the EC50 under setting [1] was < 1 µM.

Take `CCCCCCCCOc1ccc(N(C(=O)CCC(=O)O)c2nc(-c3cccnc3)c(F)s2)cc1C(F)(F)F` [Compound 163, 4-((5-fluoro-4-(pyridin-3-yl)thiazol-2-yl)(4-(octyloxy)-3-(trifluoromethyl)phenyl)amino)-4-oxobutanoic acid]: the EC50 under setting [1] was < 1 µM.

As for `CCCCCCCCOc1ccc(N(C(=O)CNC(=O)OC(C)(C)C)c2nc(-c3cccnc3)c(F)s2)cc1C(F)(F)F` [Compound 164, tert-butyl 2-((5-fluoro-4-(pyridin-3-yl)thiazol-2-yl)(4-(octyloxy)-3-(trifluoromethyl)phenyl)amino)-2-oxoethylcarbamate], under setting [1], the EC50 was < 1 µM.

On to `CCCCCCCCOc1ccc(N(C(=O)NCC(=O)O)c2nc(-c3cccnc3)cs2)cc1C(F)(F)F` [Compound 165, 2-(3-(4-(octyloxy)-3-(trifluoromethyl)phenyl)-3-(4-(pyridin-3-yl)thiazol-2-yl)ureido)acetic acid], for which, under setting [1], the EC50 was < 1 µM.

In the case of `CCCCCCCCOc1ccc(N(C(=O)NCC(=O)O)c2nc(-c3cccnc3)c(F)s2)cc1C(F)(F)F` [Compound 166, 2-(3-(5-fluoro-4-(pyridin-3-yl)thiazol-2-yl)-3-(4-(octyloxy)-3-(trifluoromethyl)phenyl)ureido)acetic acid], the EC50 under setting [1] was < 1 µM.

With `CCCCCCCCOc1ccc(N(C(=O)CN(C)C)c2nc(-c3cccnc3)c(F)s2)cc1C(F)(F)F` [Compound 167, 2-(dimethylamino)-N-(5-fluoro-4-(pyridin-3-yl)thiazol-2-yl)-N-(4-(octyloxy)-3-(trifluoromethyl)phenyl)acetamide], the EC50 under setting [1] is < 1 µM.

As to `CCCCCCCCOc1ccc(N(C(=O)COC(C)=O)c2nc(-c3cccnc3)c(F)s2)cc1C(F)(F)F` [Compound 168, 2-((5-fluoro-4-(pyridin-3-yl)thiazol-2-yl)(4-(octyloxy)-3-(trifluoromethyl)phenyl)amino)-2-oxoethyl acetate], the EC50 under setting [1] is < 1 µM.

Consider `CCCCCCCCOc1ccc(N(C(=O)CO)c2nc(-c3cccnc3)c(F)s2)cc1C(F)(F)F` [Compound 169, N-(5-fluoro-4-(pyridin-3-yl)thiazol-2-yl)-2-hydroxy-N-(4-(octyloxy)-3-(trifluoromethyl)phenyl)acetamide], for which the EC50 under setting [1] was < 1 µM.

As to `CCCCCCCCc1ccc(N(C(=O)CN(C)C)c2nc(-c3cccnc3)c(F)s2)cc1C(F)(F)F` [Compound 170, 2-(dimethylamino)-N-(5-fluoro-4-(pyridin-3-yl)thiazol-2-yl)-N-(4-octyl-3-(trifluoromethyl)phenyl)acetamide], the EC50 under setting [1] was < 1 µM.

Turning to `CCCCCCCCOc1ccc(N(C(=O)OCCOCCOCCOCCOC)c2nc(-c3cccnc3)c(F)s2)cc1C(F)(F)F` [Compound 171, 2,5,8,11-tetraoxatridecan-13-yl 5-fluoro-4-(pyridin-3-yl)thiazol-2-yl(4-(octyloxy)-3-(trifluoromethyl)phenyl)carbamate], the EC50 under setting [1] is < 1 µM.

With `CCCCCCCCOc1ccc(N(C(=O)COCCOCCOC)c2nc(-c3cccnc3)c(F)s2)cc1C(F)(F)F` [Compound 172, N-(5-fluoro-4-(pyridin-3-yl)thiazol-2-yl)-2-(2-(2-methoxyethoxy)ethoxy)-N-(4-(octyloxy)-3-(trifluoromethyl)phenyl)acetamide], the EC50 under setting [1] was < 1 µM.

For `CN(C)CC(=O)N(c1ccc(OCCCCc2cccs2)c(C(F)(F)F)c1)c1nc(-c2cccnc2)c(F)s1` [Compound 173, 2-(dimethylamino)-N-(5-fluoro-4-(pyridin-3-yl)thiazol-2-yl)-N-(4-(4-(thiophen-2-yl)butoxy)-3-(trifluoromethyl)phenyl)acetamide], the EC50 under setting [1] is < 1 µM.
